{
  "source": "patent US20210188856A1",
  "about": "“CRYSTAL FORM OF HYDROCHLORIDE OF PYRAZOLOHETEROARYL DERIVATIVE AND PREPARATION METHOD” (JIANGSU HENGRUI MEDICINE CO., LTD., priority 2018, published 2021)",
  "assay_type_in_all_cases": "physicochemical",
  "key": {"[1]": {"assay": "Solubility in PBS 7.4 and FaSSIF solutions", "details": "thermodynamic from solid", "text": "The amorphous samples of the compound represented by formula (I) and the crystal form I samples of the dihydrochloride salt of the compound represented by formula (I) obtained in the present disclosure were further evaluated for solubility in PBS 7.4 and FaSSIF solutions."}, "[2]": {"assay": "Log D"}, "[3]": {"assay": "Hygroscopicity by dynamic vapor sorption (DVS)", "details": "25° C.", "description": "DVS is dynamic vapor sorption: Surface Measurement Systems advantage 2 is used, the humidity starts from 50%, the humidity range is 0%-95%, and the step size is 10%. The judgment standard is that the mass change is less than 0.01% within 10000 min, and two cycles are performed. Surface Measurement Systems advantage 2 was used, the experiment was carried out at 25° C. with humidity starting from 50%, the humidity range observed was 0%-95%, the step size was 10%, and the judgment standard was that the mass change was less than 0.01% within 10000 min, and two cycles were performed."}, "[4]": {"assay": "Influencing factors stability (heating, light illumination, high humidity; spread and uncovered, 20 days)", "description": "Example 6: the crystal form I of the dihydrochloride salt of the compound represented by formula (I) (example 1) was spread and uncovered, and the steadily of the sample was evaluated under heating (40° C., 60° C.), light illumination (4500 Lux), and high humidity (RH 75%, RH 90%) with a period of 20 days.\nExample 10: the crystal form A (example 7) of the monohydrochloride salt of the compound of formula (I) was spread and uncovered, and the stability of the sample was evaluated under heating (40° C., 60° C.), light illumination (4500 Lux), high humidity (RH 75%, RH 90%) conditions with a period of 20 days.\nExample 11: the crystal form B of the monohydrochloride salt of the compound represented by formula (I) (example 8) was spread and uncovered, and the stability of the sample was evaluated under heating (40° C., 60° C.), light illumination (4500 Lux), high humidity (RH 75%, RH 90%) conditions with a period of 20 days.\nExample 12: the crystal form C of the monohydrochloride salt of the compound represented by formula (I) (example 9) was spread and uncovered, and the stability of the sample was evaluated under heating (40° C., 60° C.), light illumination (4500 Lux), high humidity (RH 75%, RH 90%) conditions with a period of 20 days."}, "[5]": {"assay": "Long-term stability, 25° C., 60% RH, 9 months", "details": "for Purity % 3 months / Purity % 9 months / Purity Initial: 60% RH", "description": "Example 13: Three batches of the crystal form I of the dihydrochloride salt of the compound of formula (I) were subjected to a long-term stability investigation of 9 months under the conditions of 25° C±2° C., 60%RH±5%RH."}, "[6]": {"assay": "XRPD of sample taken out during DSC temperature rise", "text": "According to X-ray powder diffraction detection, the crystal form is crystal form I, and the XRPD pattern thereof is shown in FIG. 1."}, "[7]": {"details": "light illumination (4500 Lux), 4 days"}, "[8]": {"details": "light illumination (4500 Lux), 10 days"}, "[9]": {"details": "light illumination (4500 Lux), 20 days"}},
  "note": "Entries after “also recorded” stand apart in the source; their conditions may differ. Read-outs that look alike come from different tables or passages of the source.",
  "data": [
    {"smiles": "CCCCOc1nc(N)c2cnn(Cc3ccc(CN4CCCC4)cc3)c2n1.Cl.Cl", "note": "[crystal form I, 6-butoxy-1-(4-(pyrrolidin-1-ylmethyl)benzyl)-1H-pyrazolo[3,4-d]pyrimidin-4-amine dihydrochloride]", "values": [
      {"measurement": "solubility", "setting": "[1]; FaSSIF solution, fassif, read-out: FasSIF Solubility", "value": 1250, "unit": "µg/mL"},
      {"measurement": "solubility", "setting": "[1]; PBS 7.4, pH 7.4, aqueous buffer, read-out: PBS 7.4 Solubility", "value": 50, "unit": "µg/mL"},
      {"measurement": "logD", "setting": "[2]", "value": 1.17},
      {"measurement": "DVS weight change 0.0% RH-95.0% RH", "setting": "[3]; 0.0% RH-95.0% RH", "value": 9.19, "unit": "%"},
      {"measurement": "DVS weight change 10%RH-90.0%RH", "setting": "[3]; 10%RH-90.0%RH", "value": 6.628, "unit": "%"},
      {"measurement": "Crystal form before and after DVS (XRPD)", "setting": "[3]; DVS two cycles, dihydrochloride", "value": "did not change; also recorded: has not changed; also recorded: unchanged"},
      {"measurement": "hygroscopicity (in words)", "setting": "[3]; DVS, dihydrochloride", "value": "slightly hygroscopic; also recorded: (with hygroscopicity)"},
      {"measurement": "Maximum single impurity", "setting": "[4]; 0 day", "value": 0.11, "unit": "%"},
      {"measurement": "Purity", "setting": "[4]; 0 day", "value": 99.47, "unit": "%"},
      {"measurement": "Total impurities", "setting": "[4]; 0 day", "value": 0.53, "unit": "%"},
      {"measurement": "Maximum single impurity", "setting": "[4]; 40° C., 4 days", "value": 0.11, "unit": "%"},
      {"measurement": "Purity", "setting": "[4]; 40° C., 4 days", "value": 99.49, "unit": "%"},
      {"measurement": "Total impurities", "setting": "[4]; 40° C., 4 days", "value": 0.51, "unit": "%"},
      {"measurement": "Maximum single impurity", "setting": "[4]; 40° C., 10 days", "value": 0.12, "unit": "%"},
      {"measurement": "Purity", "setting": "[4]; 40° C., 10 days", "value": 99.52, "unit": "%"},
      {"measurement": "Total impurities", "setting": "[4]; 40° C., 10 days", "value": 0.48, "unit": "%"},
      {"measurement": "Maximum single impurity", "setting": "[4]; 40° C., 20 days", "value": 0.12, "unit": "%"},
      {"measurement": "Purity", "setting": "[4]; 40° C., 20 days", "value": 99.46, "unit": "%"},
      {"measurement": "Total impurities", "setting": "[4]; 40° C., 20 days", "value": 0.54, "unit": "%"},
      {"measurement": "Maximum single impurity", "setting": "[4]; 60° C., 4 days", "value": 0.15, "unit": "%"},
      {"measurement": "Purity", "setting": "[4]; 60° C., 4 days", "value": 99.44, "unit": "%"},
      {"measurement": "Total impurities", "setting": "[4]; 60° C., 4 days", "value": 0.56, "unit": "%"},
      {"measurement": "Maximum single impurity", "setting": "[4]; 60° C., 10 days", "value": 0.11, "unit": "%"},
      {"measurement": "Purity", "setting": "[4]; 60° C., 10 days", "value": 99.53, "unit": "%"},
      {"measurement": "Total impurities", "setting": "[4]; 60° C., 10 days", "value": 0.47, "unit": "%"},
      {"measurement": "Maximum single impurity", "setting": "[4]; 60° C., 20 days", "value": 0.11, "unit": "%"},
      {"measurement": "Purity", "setting": "[4]; 60° C., 20 days", "value": 99.42, "unit": "%"},
      {"measurement": "Total impurities", "setting": "[4]; 60° C., 20 days", "value": 0.58, "unit": "%"},
      {"measurement": "Maximum single impurity", "setting": "[4]; 75% RH, 4 days", "value": 0.15, "unit": "%"},
      {"measurement": "Purity", "setting": "[4]; 75% RH, 4 days", "value": 99.38, "unit": "%"},
      {"measurement": "Total impurities", "setting": "[4]; 75% RH, 4 days", "value": 0.62, "unit": "%"},
      {"measurement": "Maximum single impurity", "setting": "[4]; 75% RH, 10 days", "value": 0.12, "unit": "%"},
      {"measurement": "Purity", "setting": "[4]; 75% RH, 10 days", "value": 99.53, "unit": "%"},
      {"measurement": "Total impurities", "setting": "[4]; 75% RH, 10 days", "value": 0.47, "unit": "%"},
      {"measurement": "Maximum single impurity", "setting": "[4]; 75% RH, 20 days", "value": 0.11, "unit": "%"},
      {"measurement": "Purity", "setting": "[4]; 75% RH, 20 days", "value": 99.47, "unit": "%"},
      {"measurement": "Total impurities", "setting": "[4]; 75% RH, 20 days", "value": 0.53, "unit": "%"},
      {"measurement": "Maximum single impurity", "setting": "[4]; 90% RH, 4 days", "value": 0.11, "unit": "%"},
      {"measurement": "Purity", "setting": "[4]; 90% RH, 4 days", "value": 99.46, "unit": "%"},
      {"measurement": "Total impurities", "setting": "[4]; 90% RH, 4 days", "value": 0.54, "unit": "%"},
      {"measurement": "Maximum single impurity", "setting": "[4]; 90% RH, 10 days", "value": 0.12, "unit": "%"},
      {"measurement": "Purity", "setting": "[4]; 90% RH, 10 days", "value": 99.54, "unit": "%"},
      {"measurement": "Total impurities", "setting": "[4]; 90% RH, 10 days", "value": 0.46, "unit": "%"},
      {"measurement": "Maximum single impurity", "setting": "[4]; 90% RH, 20 days", "value": 0.11, "unit": "%"},
      {"measurement": "Purity", "setting": "[4]; 90% RH, 20 days", "value": 99.52, "unit": "%"},
      {"measurement": "Total impurities", "setting": "[4]; 90% RH, 20 days", "value": 0.48, "unit": "%"},
      {"measurement": "Maximum single impurity", "setting": "[4]; [7]", "value": 0.14, "unit": "%"},
      {"measurement": "Purity", "setting": "[4]; [7]", "value": 99.45, "unit": "%"},
      {"measurement": "Total impurities", "setting": "[4]; [7]", "value": 0.55, "unit": "%"},
      {"measurement": "Maximum single impurity", "setting": "[4]; [8]", "value": 0.11, "unit": "%"},
      {"measurement": "Purity", "setting": "[4]; [8]", "value": 99.54, "unit": "%"},
      {"measurement": "Total impurities", "setting": "[4]; [8]", "value": 0.46, "unit": "%"},
      {"measurement": "Maximum single impurity", "setting": "[4]; [9]", "value": 0.12, "unit": "%"},
      {"measurement": "Purity", "setting": "[4]; [9]", "value": 99.41, "unit": "%"},
      {"measurement": "Total impurities", "setting": "[4]; [9]", "value": 0.59, "unit": "%"},
      {"measurement": "stability under the influencing factor conditions (in words)", "setting": "[4]; light illumination, 40° C., 60° C., 75% RH, 90% RH, 20 days", "value": "good"},
      {"measurement": "physical and chemical stability, long-term (in words)", "setting": "[5]; 25° C., 60% RH for 9 months", "value": "good"},
      {"measurement": "Purity % 3 months", "setting": "[5]; Batch 1, 25° C., 3 months", "value": 99.52, "unit": "%"},
      {"measurement": "Purity % 3 months", "setting": "[5]; Batch 1, 25° C., 3 months as printed, column between 3 and 9 months", "value": 99.57, "unit": "%"},
      {"measurement": "Purity % 9 months", "setting": "[5]; Batch 1, 25° C.", "value": 99.50, "unit": "%"},
      {"measurement": "Purity Initial", "setting": "[5]; Batch 1, 25° C.", "value": 99.57, "unit": "%"},
      {"measurement": "Purity % 3 months", "setting": "[5]; Batch 2, 25° C., 3 months", "value": 99.50, "unit": "%"},
      {"measurement": "Purity % 3 months", "setting": "[5]; Batch 2, 25° C., 3 months as printed, column between 3 and 9 months", "value": 99.48, "unit": "%"},
      {"measurement": "Purity % 9 months", "setting": "[5]; Batch 2, 25° C.", "value": 99.48, "unit": "%"},
      {"measurement": "Purity Initial", "setting": "[5]; Batch 2, 25° C.", "value": 99.53, "unit": "%"},
      {"measurement": "Purity % 3 months", "setting": "[5]; Batch 3, 25° C., 3 months", "value": 99.38, "unit": "%"},
      {"measurement": "Purity % 3 months", "setting": "[5]; Batch 3, 25° C., 3 months as printed, column between 3 and 9 months", "value": 99.33, "unit": "%"},
      {"measurement": "Purity % 9 months", "setting": "[5]; Batch 3, 25° C.", "value": 99.40, "unit": "%"},
      {"measurement": "Purity Initial", "setting": "[5]; Batch 3, 25° C.", "value": 99.44, "unit": "%"},
      {"measurement": "crystal form before and after temperature rise (XRPD)", "setting": "[6]; raised to 150° C.", "value": "did not change"},
      {"measurement": "crystal form before and after temperature rise (XRPD)", "setting": "[6]; raised to 175° C.", "value": "did not change"}
    ]}
  ]
}
